{
  "source": "paper PMC8413292",
  "about": "“Small-molecule polymerase inhibitor protects non-human primates from measles and reduces shedding” (Nature Communications, 2021)",
  "key": {"[1]": {"experiment": "Single-dose oral pharmacokinetic study in squirrel monkeys (LC/MS/MS serum concentrations)", "type": "in vivo, squirrel monkeys (Saimiri sciureus)", "details": "for tmax: 50 mg/kg oral (intragastric) single dose", "experimental": "All animal experiments were carried out in compliance with the regulations of German animal protection laws and authorized by the Regierungspräsidium Darmstadt, Germany (Dezernat V54 – Veterinärwesen und Verbraucherschutz, Hilpertstrasse 31, 64295 Darmstadt). Adult male and female squirrel monkeys (Saimiri sciureus) were obtained from BioPRIM, 31450 Baziege, or CNRS 0846 Primatologie, 13790 Rousset, France. Each experimental group was housed in a separate room, and animals of the same sex were caged together within the respective groups. For the single-dose pharmacokinetic experiment, animals were anesthetized, and the drug was given through a stomach tube at a concentration of 50 mg/kg bodyweight. Blood samples were collected after 15, 30, and 60 min, and 2, 3, 6, and 24 h. For efficacy assessment, groups of 6 animals were left untreated or treated with 50 mg/kg of ERDRP-0519 twice daily for two weeks, starting either 12 h before or 3 or 7 days after intranasal infection with 10^6 TCID50 of MV/FrankfurtMain.DEU/17.11. Clinical signs, rectal temperature, and weight were recorded daily, and throat swabs and blood samples were collected before infection and twice weekly thereafter. On day 21 post-infection, the animals were euthanized, necropsied, and samples were collected for histological analysis.\nDrug concentrations were determined using an internal standard and a reversed phase isocratic HPLC method with positive ion electrospray ionization (ESI) mass spectrometry detection (LC/MS/MS) on an AB-SCIEX API 5500 MS/MS instrument (5 μl injection volume). Pharmacokinetic parameters were estimated using WinNonlin 5.3 (Pharsight)."}, "[2]": {"test_system": "MeV/NewJersey.USA/94/1 (genotype D6)", "experiment": "PK and PD recapitulation ex vivo in MeV-infected human PBMCs, progeny virus titer (TCID50)", "type": "cell-based, Measles virus in human PBMCs", "details": "for Virus titers: hPBMCs, individual repeats; for Mean, Transform of Virus Titer: n = 4", "experimental": "Human peripheral blood mononuclear cells (hPBMCs) were infected (MOI = 0.1 TCID50 units per cell) in a 24-well plate format with MeV/NewJersey.USA/94/1 (genotype D6) in the presence of ERDRP-0519 or DMSO (0.1%). […] Cells were collected 48 h after infection and virus was subsequently harvested after two freeze thaw cycles. Released virus titers were then determined by limited dilution method (TCID50) on Vero/hSLAM cells. Four biological repeats were used for each ex vivo PK recapitulation and three biological repeats were used for DMSO-treated hPBMCs.\nPK and PD recapitulation in human blood mononuclear cells\nTo test whether viral replication in […]\ncircumstances, we performed an in vitro recapitulation experiment. For this, we infected human PBMCs in a 24-well plate format with MeV/NewJersey.USA/94/1 (genotype D6) at a multiplicity of infection of 0.1 TCID 50 units per cell. To mimic the ERDRP-0519 serum concentration profile in vitro , we adjusted the drug concentrations in our PBMC cultures multiple times during the incubation period as shown by the colored areas in Fig. 1c (recapitulating a once per day treatment regimen, q.d.) and Fig. 1d (recapitulating a twice daily treatment regimen, b.i.d.) and summarized in Supplementary Table 3. The concentration changes were applied for a total of 48 h to the infected PBMC cultures (a total of two cycles of the q.d. regimen and four cycles of the b.i.d. regimen, assuming no drug accumulation during repeated treatment). As controls, infected PBMCs were incubated in the presence of vehicle only (0.1 % DMSO) or with a constant concentration of 1.5 µM of ERDRP-0519 over the whole period of 48 h post infection. Cells were collected 48 hours after infection and virus was subsequently harvested after two freeze thaw cycles. Released virus titers were then determined by limited dilution method (TCID 50) on Vero/hSLAM cells (Fig. 1e). Four biological repeats were used for each ex vivo PK recapitulation and three biological repeats were used for DMSO-treated hPBMCs."}, "[3]": {"details": "both sexes, monkey, serum, squirrel monkeys, 50 mg/kg oral single dose, n = 3"}},
  "note": "Where “and” joins values, the source holds several entries; their conditions need not be identical. Identical values can stand only once. Like-named read-outs stand apart in the source and are kept apart here.",
  "data": [
    {"smiles": "Cn1nc(C(F)(F)F)cc1C(=O)Nc1ccc(S(=O)(=O)N2CCCC[C@H]2CCN2CCOCC2)cc1", "note": "[ERDRP-0519]", "values": [
      {"measurement": "concentration at 2 h", "setting": "[1]; 50 mg/kg oral, 0.25 h post-application, individual animals, read-out: ERDRP-0519 serum conc.", "result": "672.2 nM and 1545 nM and 3833 nM"},
      {"measurement": "concentration at 2 h", "setting": "[1]; 50 mg/kg oral, 0.5 h post-application, individual animals, read-out: ERDRP-0519 serum conc.", "result": "691.1 nM and 917.7 nM and 3493 nM"},
      {"measurement": "concentration at 2 h", "setting": "[1]; 50 mg/kg oral, 1 h post-application, individual animals, read-out: ERDRP-0519 serum conc.", "result": "1158 nM and 2002 nM and 3607 nM"},
      {"measurement": "concentration at 2 h", "setting": "[1]; 50 mg/kg oral, 2 h post-application, individual animals, read-out: ERDRP-0519 serum conc.", "result": "3078 nM and 3040 nM"},
      {"measurement": "concentration at 2 h", "setting": "[1]; 50 mg/kg oral, 3 h post-application, individual animals, read-out: ERDRP-0519 serum conc.", "result": "2889 nM and 2172 nM"},
      {"measurement": "concentration at 2 h", "setting": "[1]; 50 mg/kg oral, 6 h post-application, individual animals, read-out: ERDRP-0519 serum conc.", "result": "1259.5 nM and 991.4 nM"},
      {"measurement": "concentration at 2 h", "setting": "[1]; 50 mg/kg oral, 24 h post-application, individual animals, read-out: ERDRP-0519 serum conc.", "result": "39.09 nM and 98 nM and 77.99 nM"},
      {"measurement": "concentration at 0 h", "setting": "[1]; both sexes, monkey, serum, oral, 50 mg/kg, 50 mg/kg oral, 0 h post-application, individual animals, read-out: ERDRP-0519 serum conc.", "result": 0, "unit": "nM"},
      {"measurement": "concentration at 2 h", "setting": "[1]; both sexes, monkey, serum, oral, 50 mg/kg, 50 mg/kg oral, 2 h post-application, individual animals, read-out: ERDRP-0519 serum conc.", "result": 2490, "unit": "nM"},
      {"measurement": "concentration at 3 h", "setting": "[1]; both sexes, monkey, serum, oral, 50 mg/kg, 50 mg/kg oral, 3 h post-application, individual animals, read-out: ERDRP-0519 serum conc.", "result": 2510, "unit": "nM"},
      {"measurement": "concentration at 6 h", "setting": "[1]; both sexes, monkey, serum, oral, 50 mg/kg, 50 mg/kg oral, 6 h post-application, individual animals, read-out: ERDRP-0519 serum conc.", "result": 1340, "unit": "nM"},
      {"measurement": "tmax", "setting": "[1]; both sexes, monkey, serum, po, 50 mg/kg, squirrel monkeys, n = 3, read-out: tmax", "result": 1.8, "unit": "h"},
      {"measurement": "AUC(0-inf)", "setting": "[1]; [3]", "result": 24.4, "unit": "µM·h"},
      {"measurement": "Cmax", "setting": "[1]; [3]", "result": 3270, "unit": "nM"},
      {"measurement": "half-life", "setting": "[1]; both sexes, monkey, serum, squirrel monkeys, 50 mg/kg oral single dose, n = 3, read-out: t1/2 terminal elimination half-life (converted)", "result": 4.2, "unit": "h"},
      {"measurement": "tmax", "setting": "[1]; squirrel monkeys, n = 3, 50 mg/kg", "result": "~ 2 h"},
      {"measurement": "reduction in progeny virus titer", "setting": "[2]; continuous exposure of MeV-infected hPBMCs to 1.5 µM, 48 h", "result": "greater than three orders of magnitude reduction"},
      {"measurement": "Virus titers", "setting": "[2]; 48 h, b.i.d. 50 mg/kg simulated profile", "result": "1.80E+02 TCID50/10^6 PBMCs and 3.21E+02 TCID50/10^6 PBMCs and 4.27E+02 TCID50/10^6 PBMCs and 7.60E+01 TCID50/10^6 PBMCs"},
      {"measurement": "Virus titers", "setting": "[2]; 48 h, constant 1.5 μM", "result": "7.60E+01 TCID50/10^6 PBMCs and 5.70E+01 TCID50/10^6 PBMCs and 4.27E+01 TCID50/10^6 PBMCs"},
      {"measurement": "Virus titers", "setting": "[2]; 48 h, q.d. 50 mg/kg simulated profile", "result": "1.80E+03 TCID50/10^6 PBMCs and 2.40E+03 TCID50/10^6 PBMCs and 3.21E+03 TCID50/10^6 PBMCs and 1.35E+03 TCID50/10^6 PBMCs"},
      {"measurement": "Mean, Transform of Virus Titer", "setting": "[2]; once daily recapitulation", "result": 3.318},
      {"measurement": "Mean Diff., Transform of Virus Titer", "setting": "[2]; once daily vs. trough", "result": 1.531},
      {"measurement": "Mean Diff., Transform of Virus Titer", "setting": "[2]; once daily vs. twice daily", "result": 0.9998},
      {"measurement": "Mean Diff., Transform of Virus Titer", "setting": "[2]; once daily vs. vehicle", "result": -1.854},
      {"measurement": "progeny MeV titers versus untreated controls", "setting": "[2]; q.d. and b.i.d. regimen recapitulated ex vivo in hPBMCs, 48 h", "result": "significantly (p < 0.0001) lower than in untreated controls"},
      {"measurement": "Mean, Transform of Virus Titer", "setting": "[2]; trough (constant 1.5 µM)", "result": 1.787},
      {"measurement": "Mean Diff., Transform of Virus Titer", "setting": "[2]; trough vs. vehicle", "result": -3.385},
      {"measurement": "Mean, Transform of Virus Titer", "setting": "[2]; twice daily recapitulation", "result": 2.318},
      {"measurement": "Mean Diff., Transform of Virus Titer", "setting": "[2]; twice daily vs. trough", "result": 0.5313},
      {"measurement": "Mean Diff., Transform of Virus Titer", "setting": "[2]; twice daily vs. vehicle", "result": -2.853}
    ]}
  ]
}
